Experimental data reported in patent US7241732B2, “Compositions and methods involved in bone growth” (University of Rochester, priority 2001, dated 2007).

Assays:
[1] = tested on: osteoblast binding to osteoclast lacunae; experiment: Competition cell binding assay, osteoblasts on pitted bone wafers; format: cell-based, rat
Procedure: (§1) The 12 amino acid oligopeptide corresponding to the sequence from Clone 5 can inhibit osteoblast binding to osteoclast lacunae. […] (For these experiments, approximately 20% of the area of the wafers was pitted.) A concentration of 50 nM for the oligopeptide blocked osteoblast binding by approximately 66%. A statistically significant inhibition for binding occurred down to a concentration of 10 pM of the oligopeptide.
as §1, with “For” for “(For”, “pitted.” for “pitted.)”
To measure the effect of selected phage peptides on osteoblast binding in osteoclast lacunae we performed a cell binding assay in the presence of increasing concentrations of the phage peptide. Osteoblasts were prelabeled with L-[4,5-^3H]Leucine (250 μCi TRK636-250 μCi, Amersham ) for 24 hrs. The osteoblasts were then added to pitted bone wafers in the presence of increasing concentrations of a synthetic 12 amino acid peptide that was identical to the phage sequence. After a two hour incubation at 37° C. the wafers were washed and the amount of radiolabel associated on each wafer determined by scintillation spectrometry. The specific activity of the cells (i.e. cpm/cell) was used to determine the number of cells adhering to the wafers.

[2] = target: T1, type V tartrate resistant acid phosphatase (TRAP) (Sus scrofa, UniProt P09889); experiment: Phage display bio-panning of random 12 amino acid M13 library with immobilized TRAP; format: binding; conditions: 44 phage clones sequenced after three rounds of bio-panning with TRAP
T1 construct: One was from a purified protein extraction; from tissue; host or cells: gift of Dr. R. M. Roberts (University of Missouri)
T1 sequence (P09889 22-340): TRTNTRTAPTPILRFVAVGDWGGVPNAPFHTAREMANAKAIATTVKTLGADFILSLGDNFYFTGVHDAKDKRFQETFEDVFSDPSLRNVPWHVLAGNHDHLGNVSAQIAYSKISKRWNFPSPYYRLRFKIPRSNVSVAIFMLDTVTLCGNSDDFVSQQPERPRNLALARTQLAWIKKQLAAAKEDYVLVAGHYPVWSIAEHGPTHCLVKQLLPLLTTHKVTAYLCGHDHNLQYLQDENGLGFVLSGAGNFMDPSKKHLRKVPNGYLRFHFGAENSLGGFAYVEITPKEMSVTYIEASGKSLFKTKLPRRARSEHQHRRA
Text: In phage display either random peptide libraries or cell specific cDNA libraries can be used. Both have been used to target the interactions that take place in bone resporbtion and formation. Generally, the peptides or proteins are expressed on the surface coat of M13 or T7 phage and then these phage are used in a biopanning technique to identify which phage have affinity for a particular substrate (the “bait”). The adherent phage are eluted, amplified and used in another round of panning. After at least three rounds, phage clones are sequenced.
The TRAP used in these experiments was purified to homogeneity and was generously provided by Dr. M. Roberts.
After three rounds of bio-panning, elution and amplification 44 phage clones were selected at random and sequenced. Nine different sequences were identified. They are listed in Table 4 along with their consensus frequency. The most frequent phage sequenced was represented 15 times and the least frequent only a single time.

osteoblast gene products = experiment: Osteoblast gene expression profile assay (real-time PCR); format: cell-based
Procedure: Both GPC4 and TRIP have been used in the creation of an osteoblast gene expression profile assay. This assay utilizes cDNA primer pairs that can be used to amplify a number of osteoblast gene products with real-time PCR. In addition to GPC4 and TRIP the following are assayed; osteocalcin (a bone specific protein), alkaline phosphatase (an enzyme present in large amounts in osteoblasts, cbfa1 (a transcription factor that induces osteoblast differentiation), PTH receptor 1 (the receptor responsible for PTH action), PTH receptor 2 (a secondary receptor that may be responsible for PTHrP action).
The data are interpretted by analyzing an increase in PCR cycle number, i.e. the number of PCR cycles necessary to obtain product. The higher the cylce number the smaller amount of starting mRNA.

TRAP (GAL-4-BD-TRAP) = experiment: Mammalian two-hybrid assay TRAP / GPC4; format: cell-based, human; conditions: SaOS2 cells
TRAP (GAL-4-BD-TRAP), sequence (P13686 22-325): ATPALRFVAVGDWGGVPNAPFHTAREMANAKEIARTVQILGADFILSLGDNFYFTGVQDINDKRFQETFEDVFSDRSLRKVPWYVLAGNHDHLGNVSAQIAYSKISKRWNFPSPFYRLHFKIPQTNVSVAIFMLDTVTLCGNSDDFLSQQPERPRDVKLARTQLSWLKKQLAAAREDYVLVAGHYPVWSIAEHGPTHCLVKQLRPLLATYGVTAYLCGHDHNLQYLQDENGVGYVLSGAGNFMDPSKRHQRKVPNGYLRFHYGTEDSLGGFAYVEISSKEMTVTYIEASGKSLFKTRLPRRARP
Procedure: A mammalian two-hybrid assay was performed utilizing materials obtained from Clonetech (catalog #K1602-1). In this procedure we created two fusion proteins; a GAL4-BD-TRAP and a VP16-AD-GPC4. […] The TRAP sequence was obtained from Dr. James Bixley, University of Missouri, Columbia, Mo. GPC4 was obtained from a human osteoblast cDNA library from MG-63 cells.
GAL-4-BD-TRAP binds to the promoter of a luciferase reporter gene and the VP-16-AD-GPC4 activates RNA polymerase II activity. If the two target proteins interact with each other they will bring the binding domain protein into the vicinity of the activation domain and luciferase transcription will occur. The presence of luciferase activity in co-transfected cells is evidence for a physical association between the proteins.
In a control experiment, a second VP-16-AD protein was constructed using a GPC4 sequence deficient in the 12 amino acids identified from Clone 5 phage biopanning. This construct is termed VP-16-AD-GPC412. Deletion of the 12 amino acids from the GPC4 gene was accomplished with linker scanning mutagenesis
Pairs of plasmids were co-transfected into SaOS2 osteoblast-like cells using Lipofectamine®.

TPLSYLKGLVTV [Clone 5 peptide]
blocked osteoblast binding ([1]; 50 nM oligopeptide, about 20% of wafer area pitted): approximately 66% | interference with osteoblast binding to osteoclast lacunae (in words) ([1]; FIG. 13): interfere with this osteoblast binding in a dose dependent fashion | lowest concentration with statistically significant inhibition of osteoblast binding ([1]; pitted bone wafers): 10 pM

SEQ. ID No. 9: phage clone insert DNA from TRAP bio-panning, encodes peptide SEQ. ID No. 27 (DNA ACCAAGCCCCGAATCACGCGAATAAAGCGGCCAAGA; expressed or natural sequence)
Fre (consensus frequency among sequenced phage clones) [2]: 2/44

SEQ. ID No. 6: phage clone insert DNA from TRAP bio-panning, encodes peptide SEQ. ID No. 24 (DNA CGGCCACGGAACACCAGTAGACGTCCCATGCGCAGA; expressed or natural sequence)
Fre (consensus frequency among sequenced phage clones) [2]: 2/44

SEQ. ID No. 7: phage clone insert DNA from TRAP bio-panning, encodes peptide SEQ. ID No. 25 (DNA ATAATGCGGAAACCGCGGAGCCGTAAAACCCATAGT; expressed or natural sequence)
Fre (consensus frequency among sequenced phage clones) [2]: 5/44

SEQ. ID No. 4: phage clone insert DNA from TRAP bio-panning, encodes peptide SEQ. ID No. 22 (DNA ACGCCGTCTCTTCCTCCGACTATGTTTCGGTTGACT; expressed or natural sequence)
Fre (consensus frequency among sequenced phage clones) [2]: 4/44

SEQ. ID No. 2: phage clone insert DNA from TRAP bio-panning, encodes peptide SEQ. ID No. 20 (DNA ACTATGGGTTTTACGGCTCCGCGGTTTCCGCATTAT; expressed or natural sequence)
Fre (consensus frequency among sequenced phage clones) [2]: 6/44

SEQ. ID No. 3: phage clone insert DNA from TRAP bio-panning, encodes peptide SEQ. ID No. 21 (DNA TCTCAGTGGCATCCGCGGTCTGCGTCGTATCCGATG; expressed or natural sequence)
Fre (consensus frequency among sequenced phage clones) [2]: 4/44

SEQ. ID No. 8: phage clone insert DNA from TRAP bio-panning, encodes peptide SEQ. ID No. 26 (DNA CGGCCAACGGAACACCAGTAGACGTCCCATGCGCAG; expressed or natural sequence)
Fre (consensus frequency among sequenced phage clones) [2]: 2/44

Lead
effect on osteoblast gene products (in words) (osteoblast gene products): depresses all of the above gene products including GPC4 and TRIP | Lead PCR cycle number, TRIP (osteoblast gene products; control 21): 26 | Lead PCR cycle number, alkaline phosphatase (osteoblast gene products; control 23): 27 | Lead PCR cycle number, osteocalcin (osteoblast gene products; control 23): 26 | Lead PCR cycle number, cbfa1 (osteoblast gene products; control 24): 28 | Lead PCR cycle number, PTH receptor 1 (osteoblast gene products; control 28): 33 | Lead PCR cycle number, PTH receptor 2 (osteoblast gene products; control 31): 32 | Lead PCR cycle number, GPC4 (osteoblast gene products; higher cycle number = smaller amount of starting mRNA, control 19): 24

B1: VP-16-AD-GPC412: VP-16-AD fusion of GPC4 deficient in the 12 amino acids identified from Clone 5 (protein)
chain: ALLAAELKSKSCSEVRRLYVSKGFNKNDAPLHEINGDHLKICPQGSTCCSQEMEEKYSLQSKDDFKSVVSEQCNHLQAVFASRYKKFDEFFKELLENAEKSLNDMFVKTYGHLYMQNSELFKDLFVELKRYYVVGNVNLEEMLNDFWARLLERMFRLVNSQYHFTDEYLECVSKYTEQLKPFGDVPRKLKLQVTRAFVAARTFAQGLAVAGDVVSKVSVVNPTAQCTHALLKMKPCYNYCSNIMRGCLANQGDLDFEWNNFIDAMLMVAERLEGPFNIESVMDPIDVKISDAIMNMQDNSVQVSQKVFQGCGPPKPLPAGRISRSISESAFSARFRPHHPEERPTTAAGTSLDRLVTDVKEKLKQAKKFWSSLPSNVCNDERMAAGNGNEDDCWNGKGKSRYLFAVTGNGLANQGNNPEVQVDTSKPDILILRQIMALRVMTSKMKNAYNGNDVDFFDISDESSGEGSGSGCEYQQCPSEFDYNATDHAGKSANEKADSAGVRPGAQAYLLTVFCILFLVMQREWR
modifications: left off: large carriers
increase in luciferase activity on co-transfection with GAL-4-BD-TRAP (TRAP (GAL-4-BD-TRAP)): showed no difference from control levels

B2: VP-16-AD-GPC4: glypican 4 (GPC4) expressed as fusion protein with VP-16 activation domain (protein)
chain: ALLAAELKSKSCSEVRRLYVSKGFNKNDAPLHEINGDHLKICPQGSTCCSQEMEEKYSLQSKDDFKSVVSEQCNHLQAVFASRYKKFDEFFKELLENAEKSLNDMFVKTYGHLYMQNSELFKDLFVELKRYYVVGNVNLEEMLNDFWARLLERMFRLVNSQYHFTDEYLECVSKYTEQLKPFGDVPRKLKLQVTRAFVAARTFAQGLAVAGDVVSKVSVVNPTAQCTHALLKMIYCSHCRGLVTVKPCYNYCSNIMRGCLANQGDLDFEWNNFIDAMLMVAERLEGPFNIESVMDPIDVKISDAIMNMQDNSVQVSQKVFQGCGPPKPLPAGRISRSISESAFSARFRPHHPEERPTTAAGTSLDRLVTDVKEKLKQAKKFWSSLPSNVCNDERMAAGNGNEDDCWNGKGKSRYLFAVTGNGLANQGNNPEVQVDTSKPDILILRQIMALRVMTSKMKNAYNGNDVDFFDISDESSGEGSGSGCEYQQCPSEFDYNATDHAGKSANEKADS
modifications: left off: large carriers
increase in luciferase activity on co-transfection with GAL-4-BD-TRAP (TRAP (GAL-4-BD-TRAP)): 10-20 fold
